Measured values published in PMC5341070, “Small molecule inhibitors block Gas6-inducible TAM activation and tumorigenicity” (Scientific Reports, 2017).

Key:
Axl [1] = molecular target: T1, Axl (Homo sapiens, UniProt P30530+Q14393); experiment: Gas6-induced hAxl/IFN-γR1 CHO reporter (pSTAT1) inhibition; sAxl-Gas6 pull-down partially inhibited; type: cell-based
T1 construct: extracellular and trans-membrane domain of Axl fused to IFN-γR1 intracellular domain; with Gas6

ABL1-phosphorylated = molecular target: T2, ABL1-phosphorylated (Homo sapiens, UniProt P00519); experiment: biochemical; design: KINOMEscan (DiscoverX) competition binding screen of 97 human kinases, percent of control at 10 uM; settings: binding competition, % of control; read-out: RU-301 %Ctrl @ 10000nM
T2 construct: phosphorylated
Experimental: (§1) The KINOMEscan profiling of the inhibitors were performed as per directions by the manufacturer (DiscoverX) against a panel of human protein kinases.

AXL [2] = molecular target: AXL (Homo sapiens, UniProt P30530); experiment: biochemical; design: KINOMEscan (DiscoverX) competition binding screen of 97 human kinases, percent of control at 10 uM; settings: binding competition, % of control; read-out: RU-301 %Ctrl @ 10000nM
Experimental: as §1
Target sequence in this assay (P30530 whole entry): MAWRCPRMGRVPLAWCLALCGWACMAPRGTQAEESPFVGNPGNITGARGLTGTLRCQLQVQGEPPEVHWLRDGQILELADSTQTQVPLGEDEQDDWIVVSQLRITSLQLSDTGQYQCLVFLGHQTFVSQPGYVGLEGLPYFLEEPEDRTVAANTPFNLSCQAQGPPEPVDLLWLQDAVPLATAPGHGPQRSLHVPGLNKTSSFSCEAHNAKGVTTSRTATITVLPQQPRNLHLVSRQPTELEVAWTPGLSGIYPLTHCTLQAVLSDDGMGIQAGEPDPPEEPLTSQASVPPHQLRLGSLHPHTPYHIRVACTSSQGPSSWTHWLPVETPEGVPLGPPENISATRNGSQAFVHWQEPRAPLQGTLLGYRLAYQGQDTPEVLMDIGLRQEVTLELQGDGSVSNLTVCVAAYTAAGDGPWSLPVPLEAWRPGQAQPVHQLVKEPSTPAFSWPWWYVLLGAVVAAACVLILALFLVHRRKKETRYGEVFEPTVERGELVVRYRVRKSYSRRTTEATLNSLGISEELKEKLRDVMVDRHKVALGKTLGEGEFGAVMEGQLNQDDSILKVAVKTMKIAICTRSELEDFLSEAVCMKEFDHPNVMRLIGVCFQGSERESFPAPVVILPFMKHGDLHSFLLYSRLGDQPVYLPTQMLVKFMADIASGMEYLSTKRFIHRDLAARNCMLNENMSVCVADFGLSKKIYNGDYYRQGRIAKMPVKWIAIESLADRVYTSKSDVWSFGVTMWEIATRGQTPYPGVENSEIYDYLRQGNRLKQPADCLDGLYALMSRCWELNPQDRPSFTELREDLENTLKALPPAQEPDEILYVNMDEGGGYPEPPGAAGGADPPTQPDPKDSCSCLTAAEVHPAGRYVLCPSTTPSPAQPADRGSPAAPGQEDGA

FLT3 [3] = molecular target: FLT3 (Homo sapiens, UniProt P36888); experiment: biochemical; design: KINOMEscan (DiscoverX) competition binding screen of 97 human kinases, percent of control at 10 uM; settings: binding competition, % of control; read-out: RU-301 %Ctrl @ 10000nM
Experimental: as §1

KIT [4] = molecular target: T3, KIT (Homo sapiens, UniProt P10721); experiment: biochemical; design: KINOMEscan (DiscoverX) competition binding screen of 97 human kinases, percent of control at 10 uM; settings: binding competition, % of control; read-out: RU-301 %Ctrl @ 10000nM
Experimental: as §1

FLT3 [5] = molecular target: T4, FLT3 (Homo sapiens, UniProt P36888); experiment: KINOMEscan profiling at […]; type: binding
T4 construct: kinase domain
T4 sequence (P36888 564-993 limits assumed): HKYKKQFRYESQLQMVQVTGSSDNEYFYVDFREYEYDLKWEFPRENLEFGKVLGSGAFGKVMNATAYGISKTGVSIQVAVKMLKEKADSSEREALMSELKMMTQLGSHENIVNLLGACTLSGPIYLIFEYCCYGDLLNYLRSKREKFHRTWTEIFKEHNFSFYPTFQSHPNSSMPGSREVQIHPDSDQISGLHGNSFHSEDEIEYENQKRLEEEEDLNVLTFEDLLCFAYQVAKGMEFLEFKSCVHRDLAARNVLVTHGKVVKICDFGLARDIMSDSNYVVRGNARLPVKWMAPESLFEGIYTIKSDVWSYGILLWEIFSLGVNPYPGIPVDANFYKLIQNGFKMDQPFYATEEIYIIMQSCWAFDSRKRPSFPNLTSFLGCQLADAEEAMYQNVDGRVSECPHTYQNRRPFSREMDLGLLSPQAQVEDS

RET = molecular target: T5, RET (Homo sapiens, UniProt P07949); experiment: KINOMEscan profiling at […]; type: binding
T5 construct: kinase domain

Abl = molecular target: T6, Abl (Homo sapiens, UniProt P00519); experiment: KINOMEscan profiling at […]; type: binding
T6 construct: gene ABL1; kinase domain

KIT [6] = molecular target: T3, KIT
AXL [7] = molecular target: AXL (Homo sapiens, UniProt P30530); experiment: biochemical; design: KINOMEscan (DiscoverX) competition binding screen of 97 human kinases, percent of control at 10 uM; settings: binding competition, % of control; binder
Experimental: as §1
Target sequence in this assay (P30530 whole entry): as the sequence (P30530 whole entry) above

VEGFR2 = VEGFR2 (Homo sapiens, UniProt P35968); experiment: KINOMEscan profiling at […]; type: binding; design: gene KDR; kinase domain
TIE2 = TIE2 (Homo sapiens, UniProt Q02763); experiment: KINOMEscan profiling at […]; type: binding; design: gene TEK; kinase domain
PDGFRB = PDGFRB (Homo sapiens, UniProt P09619); experiment: KINOMEscan profiling at […]; type: binding; design: gene PDGFRB; kinase domain
Chain of PDGFRB (P09619 600-962 limits assumed): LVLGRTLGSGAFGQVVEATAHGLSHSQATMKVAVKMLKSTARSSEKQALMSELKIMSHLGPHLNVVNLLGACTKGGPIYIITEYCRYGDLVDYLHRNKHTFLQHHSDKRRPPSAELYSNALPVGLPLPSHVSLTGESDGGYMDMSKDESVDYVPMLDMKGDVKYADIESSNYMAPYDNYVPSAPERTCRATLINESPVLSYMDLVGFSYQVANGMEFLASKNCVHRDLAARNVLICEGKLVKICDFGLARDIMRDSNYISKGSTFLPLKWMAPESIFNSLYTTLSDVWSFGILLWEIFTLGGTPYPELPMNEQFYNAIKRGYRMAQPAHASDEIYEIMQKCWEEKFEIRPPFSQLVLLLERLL

Chain of TIE2 (Q02763 770-1124 limits assumed): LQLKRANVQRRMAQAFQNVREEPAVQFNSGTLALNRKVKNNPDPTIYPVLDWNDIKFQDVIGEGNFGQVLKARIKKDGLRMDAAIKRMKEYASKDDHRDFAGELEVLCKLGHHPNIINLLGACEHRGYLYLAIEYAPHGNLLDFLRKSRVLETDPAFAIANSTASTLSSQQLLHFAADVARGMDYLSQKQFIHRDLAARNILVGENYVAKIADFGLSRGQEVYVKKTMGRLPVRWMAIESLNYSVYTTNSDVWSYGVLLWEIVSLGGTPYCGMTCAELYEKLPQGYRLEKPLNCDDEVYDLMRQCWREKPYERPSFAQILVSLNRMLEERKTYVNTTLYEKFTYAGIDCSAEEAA
T2 sequence (P00519 whole entry): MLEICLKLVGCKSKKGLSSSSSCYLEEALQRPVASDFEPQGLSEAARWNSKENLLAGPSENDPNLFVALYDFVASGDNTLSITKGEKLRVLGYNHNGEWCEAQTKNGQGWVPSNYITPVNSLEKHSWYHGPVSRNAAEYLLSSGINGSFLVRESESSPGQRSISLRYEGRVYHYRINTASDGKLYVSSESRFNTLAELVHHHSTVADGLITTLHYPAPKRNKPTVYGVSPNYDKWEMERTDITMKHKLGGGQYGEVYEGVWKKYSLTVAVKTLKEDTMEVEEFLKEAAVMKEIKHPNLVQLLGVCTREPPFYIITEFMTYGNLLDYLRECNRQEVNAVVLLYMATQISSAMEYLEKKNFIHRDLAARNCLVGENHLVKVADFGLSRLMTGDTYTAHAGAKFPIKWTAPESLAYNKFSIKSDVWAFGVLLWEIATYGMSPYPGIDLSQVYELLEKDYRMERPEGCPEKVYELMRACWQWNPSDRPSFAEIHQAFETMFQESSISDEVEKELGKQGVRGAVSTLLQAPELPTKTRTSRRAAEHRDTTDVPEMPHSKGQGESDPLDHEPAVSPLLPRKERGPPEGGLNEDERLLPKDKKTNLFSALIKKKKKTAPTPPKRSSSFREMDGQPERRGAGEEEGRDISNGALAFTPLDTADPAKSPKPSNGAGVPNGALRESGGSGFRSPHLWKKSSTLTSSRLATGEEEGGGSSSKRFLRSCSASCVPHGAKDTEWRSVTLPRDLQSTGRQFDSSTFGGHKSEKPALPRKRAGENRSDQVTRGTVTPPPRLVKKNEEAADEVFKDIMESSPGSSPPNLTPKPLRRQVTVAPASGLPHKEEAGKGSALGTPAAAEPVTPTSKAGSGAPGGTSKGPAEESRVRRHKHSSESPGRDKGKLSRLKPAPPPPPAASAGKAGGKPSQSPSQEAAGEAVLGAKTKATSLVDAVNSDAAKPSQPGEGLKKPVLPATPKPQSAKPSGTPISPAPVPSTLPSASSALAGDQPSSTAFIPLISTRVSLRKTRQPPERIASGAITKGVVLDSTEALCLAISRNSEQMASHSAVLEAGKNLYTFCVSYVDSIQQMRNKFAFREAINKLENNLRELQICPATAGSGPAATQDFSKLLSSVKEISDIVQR
T1 sequence (P30530 26-472 limits assumed): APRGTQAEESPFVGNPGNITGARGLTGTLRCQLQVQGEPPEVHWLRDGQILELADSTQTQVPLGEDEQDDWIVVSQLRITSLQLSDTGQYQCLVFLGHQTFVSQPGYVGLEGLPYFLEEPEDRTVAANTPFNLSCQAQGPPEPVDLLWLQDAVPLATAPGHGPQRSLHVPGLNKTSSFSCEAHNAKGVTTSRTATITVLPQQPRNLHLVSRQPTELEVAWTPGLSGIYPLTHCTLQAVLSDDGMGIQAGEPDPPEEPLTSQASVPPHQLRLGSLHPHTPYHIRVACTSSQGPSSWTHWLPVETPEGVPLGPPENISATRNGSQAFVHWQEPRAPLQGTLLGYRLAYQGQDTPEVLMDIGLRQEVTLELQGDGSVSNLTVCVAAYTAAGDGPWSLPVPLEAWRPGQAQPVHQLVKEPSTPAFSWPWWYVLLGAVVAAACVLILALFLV
T1 sequence (Q14393 31-678): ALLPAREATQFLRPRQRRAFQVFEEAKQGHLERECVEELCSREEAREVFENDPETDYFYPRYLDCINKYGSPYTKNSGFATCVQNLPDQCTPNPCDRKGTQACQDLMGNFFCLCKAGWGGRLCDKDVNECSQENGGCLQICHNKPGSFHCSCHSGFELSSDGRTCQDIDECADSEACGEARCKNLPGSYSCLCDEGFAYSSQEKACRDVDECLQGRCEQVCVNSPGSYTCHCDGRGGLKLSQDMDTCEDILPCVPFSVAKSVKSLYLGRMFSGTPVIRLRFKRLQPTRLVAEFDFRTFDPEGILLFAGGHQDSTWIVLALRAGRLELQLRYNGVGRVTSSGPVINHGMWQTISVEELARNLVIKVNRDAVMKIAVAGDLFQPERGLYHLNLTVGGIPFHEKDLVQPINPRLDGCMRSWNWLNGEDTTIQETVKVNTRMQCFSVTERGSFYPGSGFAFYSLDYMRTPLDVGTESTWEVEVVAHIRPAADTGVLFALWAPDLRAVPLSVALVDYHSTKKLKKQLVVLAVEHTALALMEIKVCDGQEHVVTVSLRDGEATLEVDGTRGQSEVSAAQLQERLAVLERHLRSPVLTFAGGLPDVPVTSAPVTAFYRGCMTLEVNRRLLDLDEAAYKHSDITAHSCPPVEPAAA
T6 sequence (P00519 242-493 limits assumed): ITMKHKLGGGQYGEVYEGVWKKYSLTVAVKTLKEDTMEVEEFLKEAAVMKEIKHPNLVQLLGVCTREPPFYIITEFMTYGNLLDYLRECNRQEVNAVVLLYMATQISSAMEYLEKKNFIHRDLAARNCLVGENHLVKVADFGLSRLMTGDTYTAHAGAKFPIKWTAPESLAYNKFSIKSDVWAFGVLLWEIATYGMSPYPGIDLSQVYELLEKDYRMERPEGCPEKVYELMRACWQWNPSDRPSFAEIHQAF
T5 sequence (P07949 724-1016 limits assumed): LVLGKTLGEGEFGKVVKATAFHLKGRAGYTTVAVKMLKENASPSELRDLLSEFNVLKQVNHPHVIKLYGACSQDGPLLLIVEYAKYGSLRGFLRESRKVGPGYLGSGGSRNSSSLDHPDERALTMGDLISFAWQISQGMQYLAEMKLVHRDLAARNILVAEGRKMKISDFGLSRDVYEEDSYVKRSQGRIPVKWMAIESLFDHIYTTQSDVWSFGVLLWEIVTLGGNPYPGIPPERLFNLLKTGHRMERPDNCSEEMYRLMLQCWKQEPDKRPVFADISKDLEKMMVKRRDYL

Row | SMILES | IC50 (Axl [1]) | remaining binding at 10 µM (ABL1-phosphorylated) | remaining binding at 10 µM (AXL [2]) | remaining binding at 10 µM (FLT3 [3]) | remaining binding at 10 µM (KIT [4]) | KINOMEscan profiling at 10 uM (FLT3 [5]) | KINOMEscan profiling at 10 uM (RET) | KINOMEscan profiling at 10 uM (Abl) | KINOMEscan profiling at 10 uM (KIT [6]) | R428 %Ctrl @ 10000nM (AXL [7]) | KINOMEscan profiling at 10 uM (VEGFR2) | KINOMEscan profiling at 10 uM (TIE2) | KINOMEscan profiling at 10 uM (PDGFRB)
1 | Cc1cc(CSc2ccccc2C(=O)NCCNc2ccc(C(F)(F)F)cc2[N+](=O)[O-])on1 [RU-301] | low micromolar | 81% | 89% | 99% | 96% |  |  |  |  |  |  |  | 
2 | Nc1nc(Nc2ccc3c(c2)CC[C@@H](N2CCCC2)CC3)nn1-c1cc2c(nn1)-c1ccccc1CCC2 [R428] |  |  |  |  |  | KIT, PDGFR A and B, RET, TIE2, VEGFR2, JAK2, JAK3 and FLT3 kinases | R428 also bound to several other kinases, including Abl, Aurora kinases, KIT, PDGFR A and B, RET | R428 also bound to several other kinases, including Abl, Aurora kinases, KIT | R428 also bound to several other kinases, including Abl, Aurora kinases, KIT | 0.1% | KIT, PDGFR A and B, RET, TIE2, VEGFR2, JAK2, JAK3 and FLT3 kinases | KIT, PDGFR A and B, RET, TIE2, VEGFR2, JAK2, JAK3 and FLT3 kinases | R428 also bound to several other kinases, including Abl, Aurora kinases, KIT, PDGFR A and B
